# Experimental data published in publication PMC10412597, “Small molecule branched-chain ketoacid dehydrogenase kinase (BDK) inhibitors with opposing effects on BDK protein levels” (Nature Communications, 2023).
# Key:
# Parameters in all cases: Invitrogen kinase panel, per cent inhibition of kinase activity
# Details in all cases: 10 µM, inhibitor
# AKT2 = AKT2 (Homo sapiens, UniProt P31751)
# Protocol: (§1) To discover a potent and selective BDK inhibitor, a subset of the Pfizer compound collection was screened. […] Off target activity was assessed in both CEREP and kinase panels (Supplementary Tables 2, 3).
# CHEK1 = target: T1, CHEK1 (Homo sapiens, UniProt O14757)
# T1 sequence (O14757 1-476): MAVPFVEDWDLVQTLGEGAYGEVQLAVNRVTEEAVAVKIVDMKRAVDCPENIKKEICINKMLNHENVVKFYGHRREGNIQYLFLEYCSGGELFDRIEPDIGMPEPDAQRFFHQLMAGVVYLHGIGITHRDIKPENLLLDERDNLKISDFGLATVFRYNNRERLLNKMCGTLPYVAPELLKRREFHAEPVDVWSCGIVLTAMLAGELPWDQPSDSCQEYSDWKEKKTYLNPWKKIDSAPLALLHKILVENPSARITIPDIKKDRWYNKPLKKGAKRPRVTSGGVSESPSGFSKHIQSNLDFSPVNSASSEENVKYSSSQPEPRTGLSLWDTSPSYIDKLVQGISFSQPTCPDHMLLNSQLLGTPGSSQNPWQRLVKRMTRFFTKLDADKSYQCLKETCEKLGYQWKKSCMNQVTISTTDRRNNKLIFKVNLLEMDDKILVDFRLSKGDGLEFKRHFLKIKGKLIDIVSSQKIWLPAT
# Protocol: as §1
# CKI-delta = target: T2, CKI-delta (Homo sapiens, UniProt P48730)
# T2 construct: gene CSNK1D
# T2 sequence (P48730 whole entry): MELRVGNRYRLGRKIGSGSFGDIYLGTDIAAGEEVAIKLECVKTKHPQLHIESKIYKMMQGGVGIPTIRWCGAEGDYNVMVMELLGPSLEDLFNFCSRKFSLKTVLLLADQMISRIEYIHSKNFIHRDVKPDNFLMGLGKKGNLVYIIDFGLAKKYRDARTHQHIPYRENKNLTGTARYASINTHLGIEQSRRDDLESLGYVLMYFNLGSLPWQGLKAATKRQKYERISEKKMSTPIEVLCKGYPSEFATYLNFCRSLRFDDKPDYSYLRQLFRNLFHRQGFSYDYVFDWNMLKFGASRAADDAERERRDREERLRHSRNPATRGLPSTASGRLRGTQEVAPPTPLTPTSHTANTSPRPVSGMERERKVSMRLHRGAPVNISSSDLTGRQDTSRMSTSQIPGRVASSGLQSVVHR
# Protocol: as §1
# [1] = target: T3, Eukaryotic elongation factor-2 kinase (Homo sapiens, UniProt O00418)
# T3 construct: gene EEF2K
# Protocol: as §1
# FGFR1 = FGFR1 (Homo sapiens, UniProt P11362)
# Sequence of FGFR1 (P11362 whole entry): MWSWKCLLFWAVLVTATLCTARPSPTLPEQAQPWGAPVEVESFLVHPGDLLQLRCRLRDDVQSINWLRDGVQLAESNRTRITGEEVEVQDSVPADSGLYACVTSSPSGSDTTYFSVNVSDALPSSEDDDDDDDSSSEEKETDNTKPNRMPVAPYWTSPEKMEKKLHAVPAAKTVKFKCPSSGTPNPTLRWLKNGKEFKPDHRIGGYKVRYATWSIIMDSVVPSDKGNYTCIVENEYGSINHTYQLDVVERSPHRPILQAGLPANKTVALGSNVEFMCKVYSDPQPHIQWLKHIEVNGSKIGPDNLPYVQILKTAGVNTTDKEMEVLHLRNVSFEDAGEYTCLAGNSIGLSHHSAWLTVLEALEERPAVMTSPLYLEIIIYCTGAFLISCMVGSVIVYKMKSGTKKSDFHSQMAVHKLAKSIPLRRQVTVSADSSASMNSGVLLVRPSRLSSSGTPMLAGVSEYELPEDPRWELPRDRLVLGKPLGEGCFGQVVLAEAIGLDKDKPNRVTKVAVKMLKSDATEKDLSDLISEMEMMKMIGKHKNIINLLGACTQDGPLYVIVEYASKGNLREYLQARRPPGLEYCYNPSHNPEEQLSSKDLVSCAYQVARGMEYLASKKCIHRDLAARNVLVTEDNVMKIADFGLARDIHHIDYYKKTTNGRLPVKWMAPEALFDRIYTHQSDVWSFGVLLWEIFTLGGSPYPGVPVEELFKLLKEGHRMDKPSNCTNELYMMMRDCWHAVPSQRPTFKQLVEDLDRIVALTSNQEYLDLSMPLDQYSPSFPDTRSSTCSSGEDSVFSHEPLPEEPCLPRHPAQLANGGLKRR
# Protocol: as §1
# [2] = target: T4, IkB kinase beta subunit (IKK BETA) (Homo sapiens, UniProt O14920)
# T4 construct: gene IKBKB
# Protocol: as §1
# MAPK14 = MAPK14 (Homo sapiens, UniProt Q16539)
# Sequence of MAPK14 (Q16539 whole entry): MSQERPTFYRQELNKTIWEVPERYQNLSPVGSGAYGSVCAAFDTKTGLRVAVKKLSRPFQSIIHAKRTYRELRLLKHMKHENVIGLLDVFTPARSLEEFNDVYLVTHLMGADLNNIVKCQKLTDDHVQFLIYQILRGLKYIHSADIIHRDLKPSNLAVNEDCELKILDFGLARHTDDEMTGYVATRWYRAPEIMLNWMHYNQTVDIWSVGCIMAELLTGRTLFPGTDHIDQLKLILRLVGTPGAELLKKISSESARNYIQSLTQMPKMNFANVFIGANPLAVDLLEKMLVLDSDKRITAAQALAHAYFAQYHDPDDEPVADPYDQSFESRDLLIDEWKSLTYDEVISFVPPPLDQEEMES
# Protocol: as §1
# MAPKAPK5 = MAPKAPK5 (Homo sapiens, UniProt Q8IW41)
# Sequence of MAPKAPK5 (Q8IW41 whole entry): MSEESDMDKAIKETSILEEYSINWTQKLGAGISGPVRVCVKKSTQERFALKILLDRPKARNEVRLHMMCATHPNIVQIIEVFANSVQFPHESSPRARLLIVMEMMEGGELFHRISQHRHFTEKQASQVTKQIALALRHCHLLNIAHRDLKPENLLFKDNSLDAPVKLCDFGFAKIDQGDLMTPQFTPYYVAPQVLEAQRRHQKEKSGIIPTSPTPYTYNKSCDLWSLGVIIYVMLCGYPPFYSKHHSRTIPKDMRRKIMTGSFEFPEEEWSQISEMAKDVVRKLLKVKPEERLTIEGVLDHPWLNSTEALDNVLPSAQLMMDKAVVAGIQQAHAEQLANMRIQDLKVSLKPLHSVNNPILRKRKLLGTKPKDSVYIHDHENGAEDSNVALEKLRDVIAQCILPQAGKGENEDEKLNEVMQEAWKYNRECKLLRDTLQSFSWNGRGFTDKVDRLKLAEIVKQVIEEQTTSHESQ
# Protocol: as §1
# MEK1 = target: T5, MEK1 (Homo sapiens, UniProt Q02750)
# T5 construct: gene MAP2K1
# T5 sequence (Q02750 whole entry): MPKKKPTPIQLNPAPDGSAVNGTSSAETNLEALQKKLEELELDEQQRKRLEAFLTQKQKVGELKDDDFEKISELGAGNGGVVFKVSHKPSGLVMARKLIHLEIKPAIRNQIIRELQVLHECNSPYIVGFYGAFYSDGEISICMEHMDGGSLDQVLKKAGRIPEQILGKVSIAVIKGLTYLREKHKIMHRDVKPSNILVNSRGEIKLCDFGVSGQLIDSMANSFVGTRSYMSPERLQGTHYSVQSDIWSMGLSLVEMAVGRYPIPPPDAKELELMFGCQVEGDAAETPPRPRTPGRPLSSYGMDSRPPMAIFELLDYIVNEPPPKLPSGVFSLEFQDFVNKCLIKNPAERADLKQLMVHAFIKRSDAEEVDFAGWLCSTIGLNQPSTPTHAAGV
# Protocol: as §1
# MKNK1 = MKNK1 (Homo sapiens, UniProt Q9BUB5)
# Protocol: as §1
# MST4 = target: T6, MST4 (Homo sapiens, UniProt Q9P289)
# T6 construct: gene STK26
# T6 sequence (Q9P289 whole entry): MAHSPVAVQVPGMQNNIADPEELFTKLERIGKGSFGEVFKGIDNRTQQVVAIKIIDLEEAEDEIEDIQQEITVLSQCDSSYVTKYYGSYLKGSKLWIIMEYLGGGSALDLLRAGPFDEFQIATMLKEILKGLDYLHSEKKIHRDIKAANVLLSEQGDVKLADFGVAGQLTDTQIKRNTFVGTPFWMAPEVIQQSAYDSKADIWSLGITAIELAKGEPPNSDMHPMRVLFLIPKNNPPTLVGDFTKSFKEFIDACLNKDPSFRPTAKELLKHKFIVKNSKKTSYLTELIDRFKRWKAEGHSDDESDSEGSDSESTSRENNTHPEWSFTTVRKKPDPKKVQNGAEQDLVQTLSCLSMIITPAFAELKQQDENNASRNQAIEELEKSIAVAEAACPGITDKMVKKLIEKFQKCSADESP
# Protocol: as §1
# [3] = target: T7, Mitogen-Activated Protein Kinase Kinase Kinase Kinase 4 (MAPK4K4) (Homo sapiens, UniProt O95819)
# T7 construct: gene MAP4K4
# T7 sequence (O95819 whole entry): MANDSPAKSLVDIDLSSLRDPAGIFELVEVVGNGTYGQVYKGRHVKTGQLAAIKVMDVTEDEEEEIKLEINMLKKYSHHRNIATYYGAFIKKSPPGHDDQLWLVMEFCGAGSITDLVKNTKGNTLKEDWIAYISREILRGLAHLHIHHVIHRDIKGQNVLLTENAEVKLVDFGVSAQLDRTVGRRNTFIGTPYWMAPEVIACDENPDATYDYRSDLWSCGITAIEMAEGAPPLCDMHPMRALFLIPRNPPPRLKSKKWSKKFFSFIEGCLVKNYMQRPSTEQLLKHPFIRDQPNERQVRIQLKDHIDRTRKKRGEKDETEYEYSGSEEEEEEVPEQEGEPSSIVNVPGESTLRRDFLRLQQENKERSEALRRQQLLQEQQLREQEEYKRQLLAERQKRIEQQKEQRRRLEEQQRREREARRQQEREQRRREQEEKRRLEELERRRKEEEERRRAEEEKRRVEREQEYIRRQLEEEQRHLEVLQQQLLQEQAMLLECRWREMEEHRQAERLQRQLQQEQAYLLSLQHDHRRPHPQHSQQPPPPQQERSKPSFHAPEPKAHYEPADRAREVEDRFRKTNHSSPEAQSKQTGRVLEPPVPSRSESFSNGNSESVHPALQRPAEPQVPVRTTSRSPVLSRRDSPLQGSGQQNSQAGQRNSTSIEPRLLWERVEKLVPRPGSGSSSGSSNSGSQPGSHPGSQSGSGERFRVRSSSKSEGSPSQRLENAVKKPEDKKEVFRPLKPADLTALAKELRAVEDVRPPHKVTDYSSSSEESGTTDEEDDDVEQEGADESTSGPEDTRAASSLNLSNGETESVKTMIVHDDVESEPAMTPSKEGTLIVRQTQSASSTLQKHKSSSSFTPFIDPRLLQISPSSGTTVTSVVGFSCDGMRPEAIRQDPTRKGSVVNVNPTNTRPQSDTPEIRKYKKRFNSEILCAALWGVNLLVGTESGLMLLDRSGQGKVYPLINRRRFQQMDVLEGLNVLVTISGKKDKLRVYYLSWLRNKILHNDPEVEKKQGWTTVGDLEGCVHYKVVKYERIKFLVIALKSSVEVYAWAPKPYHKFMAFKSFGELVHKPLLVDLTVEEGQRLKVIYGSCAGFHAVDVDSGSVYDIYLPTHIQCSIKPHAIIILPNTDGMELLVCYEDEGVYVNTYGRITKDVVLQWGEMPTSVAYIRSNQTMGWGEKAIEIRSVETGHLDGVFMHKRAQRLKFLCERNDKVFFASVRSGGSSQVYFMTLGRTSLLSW
# Protocol: as §1
# NEK6 = NEK6 (Homo sapiens, UniProt Q9HC98)
# Sequence of NEK6 (Q9HC98 whole entry): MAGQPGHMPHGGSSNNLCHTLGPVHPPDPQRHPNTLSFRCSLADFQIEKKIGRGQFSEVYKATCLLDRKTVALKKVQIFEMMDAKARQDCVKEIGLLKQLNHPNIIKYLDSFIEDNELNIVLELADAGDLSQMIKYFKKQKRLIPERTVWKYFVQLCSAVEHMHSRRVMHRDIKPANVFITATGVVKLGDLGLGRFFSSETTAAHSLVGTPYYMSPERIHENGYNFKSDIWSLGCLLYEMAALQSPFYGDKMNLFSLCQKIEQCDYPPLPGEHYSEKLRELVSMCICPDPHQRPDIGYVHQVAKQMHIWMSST
# Protocol: as §1
# PAK4 = PAK4 (Homo sapiens, UniProt O96013)
# Sequence of PAK4 (O96013 whole entry): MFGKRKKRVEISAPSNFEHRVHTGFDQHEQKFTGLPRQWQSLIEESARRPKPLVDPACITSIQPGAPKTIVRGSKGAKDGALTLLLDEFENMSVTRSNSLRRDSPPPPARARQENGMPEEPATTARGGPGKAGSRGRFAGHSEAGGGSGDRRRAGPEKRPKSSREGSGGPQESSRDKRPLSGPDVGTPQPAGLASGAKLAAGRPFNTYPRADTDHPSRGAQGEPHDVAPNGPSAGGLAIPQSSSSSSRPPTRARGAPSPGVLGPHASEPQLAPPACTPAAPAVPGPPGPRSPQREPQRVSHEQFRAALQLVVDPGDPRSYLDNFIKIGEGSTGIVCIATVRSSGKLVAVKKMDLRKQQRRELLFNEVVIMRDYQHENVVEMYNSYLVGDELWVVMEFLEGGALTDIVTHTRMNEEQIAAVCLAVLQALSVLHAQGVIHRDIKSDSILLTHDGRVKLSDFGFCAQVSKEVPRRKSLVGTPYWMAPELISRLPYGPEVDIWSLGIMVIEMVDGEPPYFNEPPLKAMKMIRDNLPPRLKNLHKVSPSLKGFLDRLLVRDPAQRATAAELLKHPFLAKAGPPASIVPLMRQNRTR
# Protocol: as §1
# PIM-1 = target: T8, PIM-1 (Homo sapiens, UniProt P11309)
# T8 construct: gene PIM1
# Protocol: as §1
# PRKACA = PRKACA (Homo sapiens, UniProt P17612)
# Protocol: as §1
# PRKDC = PRKDC (Homo sapiens, UniProt P78527)
# Protocol: as §1
# ROCK2 = ROCK2 (Homo sapiens, UniProt O75116)
# Protocol: as §1
# mixed lineage kinase 1 = target: T9, mixed lineage kinase 1 (Homo sapiens, UniProt P80192)
# T9 construct: gene MAP3K9
# Protocol: as §1
compound,measurement,setting,value
"O=C(O)c1sc2cc(F)sc2c1Cl [PF-07208254, 3-chloro-5-fluorothieno[3,2-b]thiophene-2-carboxylic acid]",ATP = Km % Inhibition PF-07208254,AKT2,0.2%
same,ATP = 1 mM % Inhibition PF-07208254,CHEK1,4.3%
same,ATP = Km % Inhibition PF-07208254,CHEK1,4.6%
same,ATP = Km % Inhibition PF-07208254,CKI-delta,9.1%
same,ATP = Km % Inhibition PF-07208254,[1],2.3%
same,ATP = 1 mM % Inhibition PF-07208254,FGFR1,-0.5%
same,ATP = Km % Inhibition PF-07208254,FGFR1,-0.5%
same,ATP = Km % Inhibition PF-07208254,[2],4.8%
same,ATP = 1 mM % Inhibition PF-07208254,MAPK14,4.0%
same,ATP = Km % Inhibition PF-07208254,MAPK14,3.0%
same,ATP = Km % Inhibition PF-07208254,MAPKAPK5,6.6%
same,ATP = 100 uM % Inhibition PF-07208254,MEK1,4.1%
same,ATP = Km % Inhibition PF-07208254,MKNK1,15.1%
same,ATP = 1 mM % Inhibition PF-07208254,MST4,3.7%
same,ATP = Km % Inhibition PF-07208254,MST4,16.7%
same,ATP = 1 mM % Inhibition PF-07208254,[3],-7.5%
same,ATP = Km % Inhibition PF-07208254,[3],11.9%
same,ATP = Km % Inhibition PF-07208254,NEK6,7.1%
same,ATP = 1 mM % Inhibition PF-07208254,PAK4,0.9%
same,ATP = Km % Inhibition PF-07208254,PAK4,6.0%
same,ATP = Km % Inhibition PF-07208254,PIM-1,44.5%
same,ATP = 1 mM % Inhibition PF-07208254,PRKACA,-2.4%
same,ATP = Km % Inhibition PF-07208254,PRKACA,2.7%
same,ATP = Km % Inhibition PF-07208254,PRKDC,8.3%
same,ATP = Km % Inhibition PF-07208254,ROCK2,-5.8%
same,ATP = Km % Inhibition PF-07208254,mixed lineage kinase 1,3.2%
"CCC1(COc2ccc(-c3csc(-c4ccccc4C(=O)O)n3)cn2)CC1 [PF-07247685, 2-(4-{6-[(1-ethylcyclopropyl)methoxy]pyridin-3-yl}-1,3-thiazol-2-yl)benzoic acid]",ATP = Km % Inhibition PF-07247685,AKT2,5.5%
same,ATP = 1 mM % Inhibition PF-07247685,CHEK1,4.5%
same,ATP = Km % Inhibition PF-07247685,CHEK1,-3.1%
same,ATP = Km % Inhibition PF-07247685,CKI-delta,6.0%
same,ATP = Km % Inhibition PF-07247685,[1],-1.5%
same,ATP = 1 mM % Inhibition PF-07247685,FGFR1,2.1%
same,ATP = Km % Inhibition PF-07247685,FGFR1,8.8%
same,ATP = Km % Inhibition PF-07247685,[2],-0.0%
same,ATP = 1 mM % Inhibition PF-07247685,MAPK14,7.1%
same,ATP = Km % Inhibition PF-07247685,MAPK14,3.5%
same,ATP = Km % Inhibition PF-07247685,MAPKAPK5,2.3%
same,ATP = 100 uM % Inhibition PF-07247685,MEK1,11.2%
same,ATP = Km % Inhibition PF-07247685,MKNK1,0.5%
same,ATP = 1 mM % Inhibition PF-07247685,MST4,-2.9%
same,ATP = Km % Inhibition PF-07247685,MST4,2.9%
same,ATP = 1 mM % Inhibition PF-07247685,[3],3.2%
same,ATP = Km % Inhibition PF-07247685,[3],25.5%
same,ATP = Km % Inhibition PF-07247685,NEK6,1.2%
same,ATP = 1 mM % Inhibition PF-07247685,PAK4,3.7%
same,ATP = Km % Inhibition PF-07247685,PAK4,8.3%
same,ATP = Km % Inhibition PF-07247685,PIM-1,-2.6%
same,ATP = 1 mM % Inhibition PF-07247685,PRKACA,0.3%
same,ATP = Km % Inhibition PF-07247685,PRKACA,2.3%
same,ATP = Km % Inhibition PF-07247685,PRKDC,5.4%
same,ATP = Km % Inhibition PF-07247685,ROCK2,5.5%
same,ATP = Km % Inhibition PF-07247685,mixed lineage kinase 1,6.3%
